Measured values as given in patent publication US20090192095A1 (priority 2008, published 2009).
Where “and” joins values, the source holds several entries; their conditions need not be identical. Equal values may be shown once. Where a name gives a salt, the structure may show the parent alone. Read-outs that look alike come from different tables or passages of the source.

How the values were obtained:
[1] = for Simulated gastric fluid (pH 1.1): % remaining after 2 h/37° C. / Simulated intestinal fluid (pH 6.8): % remaining after 2 h/37° C.: simulated gi fluid
[2] = system: human colon circular muscle strips; assay type: cell-based; settings: human colonic strips, EFS
ferret = settings: for Total number of individual incidences of: Retching / Total number of individual incidences of: Vomiting: individual ferrets, 150 mg/kg oral, naloxone 0.5 mg/kg s.c. pretreatment, observed 2 hours
acetyl choline esterase = acetyl choline esterase (Homo sapiens, UniProt P22303); assay: In vitro assessment with a human acetyl choline esterase preparation; assay type: biochemical
acetyl choline esterase, sequence (P22303 32-614): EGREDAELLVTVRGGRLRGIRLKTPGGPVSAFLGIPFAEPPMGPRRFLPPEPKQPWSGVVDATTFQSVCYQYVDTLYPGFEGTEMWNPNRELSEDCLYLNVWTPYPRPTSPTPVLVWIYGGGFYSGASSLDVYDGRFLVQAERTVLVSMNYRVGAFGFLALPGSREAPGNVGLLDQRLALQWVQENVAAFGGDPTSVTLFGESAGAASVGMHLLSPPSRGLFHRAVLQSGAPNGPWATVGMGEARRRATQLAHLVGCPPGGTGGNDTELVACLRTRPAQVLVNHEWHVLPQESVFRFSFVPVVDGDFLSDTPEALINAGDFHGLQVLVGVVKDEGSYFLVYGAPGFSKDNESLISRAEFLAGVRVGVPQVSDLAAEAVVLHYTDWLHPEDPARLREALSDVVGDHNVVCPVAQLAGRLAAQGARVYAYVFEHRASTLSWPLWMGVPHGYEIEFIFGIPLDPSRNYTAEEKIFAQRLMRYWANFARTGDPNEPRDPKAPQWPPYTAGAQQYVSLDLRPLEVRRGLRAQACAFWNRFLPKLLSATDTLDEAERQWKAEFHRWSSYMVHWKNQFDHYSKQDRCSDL

[3] = system: rat colon circular muscle strips; assay type: cell-based; design: unit not given here; settings: rat colonic strips, EFS
[4] = Beagle, dog, in vivo, po, 1 mg/kg
[5] = system: gastro-intestinal motility in the rat; assay: Charcoal propulsion test (gastro-intestinal motility) in the rat; settings: oral; for delay of the passage of the charcoal meal (gut motility): 30 mg/kg dose or equimolar dose of prodrug
[6] = system: guinea pig small intestine myenteric plexus longitudinal muscle; assay: tissue or blood; assay type: cell-based; settings: for EC50: Cavia porcellus, read-out: EC50 for inhibition of contractility
[7] = listed as meptazinol valine carbamate
[8] = female, ferret, in vivo, po, 150 mg/kg
[9] = 10 mg/kg, 60 min before charcoal, 30 min after charcoal

CC(C)[C@@H](NC(=O)OC1=C2OC3C(=O)CCC4[C@H]5CC(CC1)C2[C@@]34CCN5C)C(=O)O (stereo partly drawn) [Hydromorphone valine carbamate, hydromorphone-(S)-valine carbamate trifluoroacetate]
Distilled water (pH 5.9): % remaining after 2 h/20° C. [1]: 100%
Simulated gastric fluid (pH 1.1): % remaining after 2 h/37° C. [1]: 100%
Simulated intestinal fluid (pH 6.8): % remaining after 2 h/37° C. [1]: 98%

CCC1(c2cccc(OC(=O)N[C@H](C(=O)O)C(C)C)c2)CCCCN(C)C1 (stereo partly drawn) [Meptazinol valine carbamate, meptazinol-(S)-valine carbamate trifluoroacetate]
Mean force of contraction ± sd ([2]; 0.01 μM): 89.77
Mean force of contraction ± sd ([2]; 0.1 μM): 83.63
Mean force of contraction ± sd ([2]; 0.5 μM): 79.00
Mean force of contraction ± sd ([2]; 1.0 μM): 80.56
Mean force of contraction ± sd ([2]; 10 μM): 76.92
Mean force of contraction ± sd ([2]; 100 μM): 79.25
animals demonstrating any retching and vomiting (ferret; group of five ferrets, comparable molar dose, 2 hours): only one
Total number of individual incidences of: Retching (ferret): 0 (4×) and 2
Total number of individual incidences of: Vomiting (ferret): 0 (4×) and 1
Total number of individual incidences of: Retching (ferret; [7]): 2
Total number of individual incidences of: Vomiting (ferret; [7]): 1
acetyl choline esterase inhibitory action (acetyl choline esterase): loss of acetyl choline esterase inhibitory action
Mean force of contraction ± sd ([3]; 0.01 μM): 104.47
Mean force of contraction ± sd ([3]; 0.1 μM): 121.87
Mean force of contraction ± sd ([3]; 0.5 μM): 86.04
Mean force of contraction ± sd ([3]; 1.0 μM): 75.22
Mean force of contraction ± sd ([3]; 10 μM): 65.57
Mean force of contraction ± sd ([3]; 100 μM): 75.17
Distilled water (pH 5.9): % remaining after 2 h/20° C. [1]: 100%
Simulated gastric fluid (pH 1.1): % remaining after 2 h/37° C. [1]: 100%
Simulated intestinal fluid (pH 6.8): % remaining after 2 h/37° C. [1]: 99%

CCC1(c2cccc(O)c2)CCCCN(C)C1 (stereo not drawn) [Meptazinol]
animals that exhibited retching and emesis (ferret; [8]): 50%
episodes of vomiting in animals that responded (ferret; [8]): 1-17
retches observed in a 2 hour period in animals that responded (ferret; [8]): 5-66
T½ [4]: 2.8 h

CC(C)C(NC(=O)Oc1ccc2c3c1O[C@H]1C(=O)CC[C@@]4(O)[C@@H](C2)N(C)CC[C@]314)C(=O)O (stereo partly drawn) [Oxymorphone valine carbamate, oxymorphone-(S)-valine carbamate hydrochloride]
% change from vehicle-treated animals, Small intestine ([5]; 10 mg/kg): −4.9%
% change from vehicle-treated animals, Total gut length ([5]; 10 mg/kg): −3.9%
Group mean distance travelled by charcoal as % of (±sd) Small intestine [5, 9]: 68.5 ± 7.85%
Group mean distance travelled by charcoal as % of (±sd) Total gut length [5, 9]: 58.9 ± 6.95%
% change from vehicle-treated animals, Small intestine ([5]; 30 mg/kg): −13.7%
% change from vehicle-treated animals, Total gut length ([5]; 30 mg/kg): −13.1%
delay of the passage of the charcoal meal (gut motility) [5]: 14%
Fold difference [6]: 15.5
EC50 [6]: 200 nM
Distilled water (pH 5.9): % remaining after 2 h/20° C. [1]: 100%
Simulated gastric fluid (pH 1.1): % remaining after 2 h/37° C. [1]: 100%
Simulated intestinal fluid (pH 6.8): % remaining after 2 h/37° C. [1]: 97%

CN1CC[C@]23c4c5ccc(O)c4O[C@H]2C(=O)CC[C@@]3(O)[C@H]1C5 [Oxymorphone]
T½ [4]: 2.2 h
% change from vehicle-treated animals, Small intestine ([5]; 1 mg/kg): −5.0%
% change from vehicle-treated animals, Total gut length ([5]; 1 mg/kg): −4.5%
% change from vehicle-treated animals, Small intestine ([5]; 3 mg/kg): −9.5%
% change from vehicle-treated animals, Total gut length ([5]; 3 mg/kg): −9.4%
% change from vehicle-treated animals, Small intestine ([5]; 10 mg/kg): −24.1%
% change from vehicle-treated animals, Total gut length ([5]; 10 mg/kg): −24.1%
% change from vehicle-treated animals, Small intestine ([5]; 30 mg/kg): −69.5%
% change from vehicle-treated animals, Total gut length ([5]; 30 mg/kg): −69.8%
delay of the passage of the charcoal meal (gut motility) [5]: 70%
EC50 [6]: 12.9 nM
